Measured values reported in publication PMC6547622 (ACS Omega, 2019).

Key:
Format in all cases: biochemical
αPMM/PGM = molecular target: T1, αPMM/PGM (Pseudomonas aeruginosa, UniProt P26276); experiment: Michaelis Menten kinetics of αPMM/PGM; conditions: read-out: Km(αG1P), variable αG1P 0–200 µM
T1 sequence (P26276 1-463): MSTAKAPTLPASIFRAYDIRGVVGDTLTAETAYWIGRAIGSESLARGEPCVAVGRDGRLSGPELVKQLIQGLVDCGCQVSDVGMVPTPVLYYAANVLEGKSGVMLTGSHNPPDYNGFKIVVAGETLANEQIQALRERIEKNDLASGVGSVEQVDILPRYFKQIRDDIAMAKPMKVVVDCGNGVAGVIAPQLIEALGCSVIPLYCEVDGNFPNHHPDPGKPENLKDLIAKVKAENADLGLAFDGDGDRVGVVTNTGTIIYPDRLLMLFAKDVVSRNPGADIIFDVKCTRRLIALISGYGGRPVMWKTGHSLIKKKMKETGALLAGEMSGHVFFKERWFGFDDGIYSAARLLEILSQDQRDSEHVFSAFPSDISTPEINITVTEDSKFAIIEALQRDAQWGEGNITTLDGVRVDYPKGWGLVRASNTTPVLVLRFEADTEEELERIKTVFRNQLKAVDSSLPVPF

[1] = molecular target: T2, αPMM/PGM from P. aeruginosa (Pseudomonas aeruginosa, UniProt P26276); experiment: IC50 determination of αPMM/PGM
T2 sequence (P26276 1-463): T1 sequence (P26276 1-463)

βPGM from L. lactis = βPGM from L. lactis (Lactococcus lactis subsp. lactis, UniProt P71447); experiment: IC50 determination of βPGM

SMILES | Km (αPMM/PGM) [µM] | IC50 [1] [µM] | Ki [1] [µM] | IC50 (βPGM from L. lactis) [µM] | Ki (βPGM from L. lactis) [µM]
O=P(O)(O)O[C@H]1O[C@H](CO)[C@@H](O)[C@H](O)[C@H]1O [αG1P, glucose 1-phosphate] | 20 | – | – | – | –
C[C@]1(O)O[C@H](COP(=O)(O)O)[C@@H](O)[C@H](O)[C@H]1O [compound 1, 1-Deoxy-α-D-gluco-heptulose 7-Phosphate] | – | 131 ± 1 | 65 ± 0.5 | 113 ± 3 | 57 ± 2
O=P(O)(O)OC[C@H]1O[C@@](O)(CF)[C@H](O)[C@@H](O)[C@@H]1O [compound 2, 1-Deoxy-1-monofluoro-α-D-gluco-heptulose 7-Phosphate] | – | 234 ± 29 | 117 ± 14 | 183 ± 14 | 92 ± 7
O=P(O)(O)OC[C@H]1O[C@@](O)(C(F)F)[C@H](O)[C@@H](O)[C@@H]1O [compound 3, 1-Deoxy-1,1-difluoro-α-D-gluco-heptulose 7-Phosphate] | – | 288 ± 37 | 144 ± 18 | 214 ± 11 | 107 ± 6
